Assay results reported in paper PMC8296985, “A Covalent Calmodulin Inhibitor as a Tool to Study Cellular Mechanisms of K-Ras-Driven Stemness” (Frontiers in Cell and Developmental Biology, 2021).
Like-named read-outs stand apart in the source and are kept apart here.

Tests used:
H-RasG12V = H-RasG12V nanoclustering-BRET assay in HEK293-EBNA cells; type: cell-based; conditions: FTI-277 1 μM, 24 h
Protocol: BRET assays were essentially performed as described by others ([Lavoie et al., 2013]; [Bery et al., 2018]). About 100,00–150,000 HEK293-EBNA ([Meissner et al., 2001]) cells were seeded per well of a 12-well plate in 1 ml of DMEM containing 10% FBS and 2 mM L-glutamine and were grown for 24 h. Next day, Rluc8-tagged donor and GFP2-tagged acceptor constructs were transfected into cells using a jetPRIME transfection reagent (cat. no. 114-75, Polyplus). Each well was transfected with about 1 μg of plasmid DNA using 3 μl of the jetPRIME reagent. […] Then fluorescence intensity followed by BRET readings were carried out on a Clariostar (BMG Labtech) plate reader at 25°C. The fluorescence intensity (RFU) of GFP2 was measured with excitation at 405 ± 10 nm and emission 515 ± 10 nm; it is proportional to the acceptor concentration [acceptor]. BRET readings were taken well by well by adding 10 μl of 100 μM coelenterazine 400a (cat. no. C-320, GoldBio), the Rluc8 substrate to each well (final concentration of 10 μM) using the injector present in the plate reader. Luminescence emission intensities were simultaneously recorded at 410 ± 40 nm (RLU, proportional to [donor]) and 515 ± 15 nm (BRET signal).
The raw BRET ratio was calculated as the BRET signal measured at 515 nm divided by the emission signal measured at 410 nm (RLU). […]

Hs 578T = experiment: 3D spheroid (tumorosphere) formation assay, low attachment, serum-free, alamarBlue; type: cell-based; conditions: Homo sapiens
Protocol: (§1) 3D spheroid formation assays were performed in 96-well low-attachment, suspension culture plates (cat. no. 655185, Cellstar, Greiner Bio-One) under serum-free condition. About 1,000 (MDA-MB-231, NCI-H358, and MIA PaCa-2) or 2,500 (Hs 578T) cells per well were seeded in 50 μl of either an RPMI medium (cat. no. 52400-025, Gibco, Thermo Fisher Scientific) (MDA-MB-231, A375, and NCI-H358) or DMEM (cat. no. 41965-039, Gibco, Thermo Fisher Scientific) (Hs 578T and MIA PaCa-2), containing 0.5% MethoCult (cat. no. SF H4636, Stemcell technologies), 1x B27 (cat. no. 17504044, Gibco, Thermo Fisher Scientific), 25 ng/ml EGF (cat. no. E9644, Sigma-Aldrich), and 25 ng/ml FGF (cat. no. RP-8628, Thermo Fisher Scientific). Cells were cultured for 3 days and then treated with compounds or vehicle control (DMSO 0.1% v/v in growth medium) for another 3 days. The cells were supplemented with a fresh growth medium on the third day together with the drug treatment. For knockdown experiments, cells were seeded in 12-well plates and treated with either 50 nM scrambled siRNA (cat. no. 1022076, QIAGEN) or indicated concentrations of siRNAs. Next day, cells were collected by trypsinization and re-plated into 96-well plates for 3D spheroid suspension culture.
(§2) Spheroid formation efficiency was analyzed by an alamarBlue assay reagent (cat. no. DAL1100, Thermo Fisher Scientific). A 10% final volume of the alamarBlue reagent was added to each well of the plate and incubated for 4 h at 37°C. Then the fluorescence intensity was measured using the FLUOstar OPTIMA plate reader (BMG Labtech, Germany) with an excitation wavelength of 560 ± 5 nm and an emission wavelength of 590 ± 5 nm.
(§3) To quantitatively profile the drug sensitivity with a more robust parameter than the IC50 or EC50 values, the drug sensitivity score (DSS) analysis was employed. DSS values are essentially normalized area under the curve (AUC) measures of dose-response inhibition data ([Yadav et al., 2014]). Drug response data files (in Excel) ready for online analysis were prepared according to the example file obtained from the DSS pipeline website, called Breeze^1 ([Potdar et al., 2020]). Either raw fluorescence intensity measurements or normalized % inhibition data (for BRET assay analysis) were uploaded.
(§4) DSS3 was employed to emphasize drugs that obtain their response area over a relatively wide dose window, as compared to drugs that show increased response only at the higher end of the concentration range. After logistic fitting of the dose-response inhibition data, the area under the curve (AUC) was determined as the exact solution. A 10% minimal activity threshold (t) was set. The maximum (Cmax) and minimum (Cmin) concentrations were used for screening of the inhibitors, with Cmax = x2 and x1 concentration with minimal activity t.

MDA-MB-231 = experiment: as above; type: cell-based; conditions: for IC50: Homo sapiens; for KRAS/HRAS mutant cell line DSS3 ratio: MDA-MB-231 vs Hs 578T 3D spheroid formation, 0.6–40 μM, numbers above bars Fig. 1A,B
Protocol: as §1, §2, §3, §4

K-RasG12V/CaM = molecular target: T1, K-RasG12V/CaM (Homo sapiens, UniProt P0DP23); experiment: Rluc8-K-RasG12V/GFP2-CaM interaction BRET in HEK293-EBNA cells; type: cell-based; conditions: 24-h exposure, A/D plasmid ratio 9/1; read-out: IC50 of Rluc8-K-RasG12V/GFP2-CaM BRET signal
T1 construct: expressed in transfected cells; host or cells: HEK293-EBNA
Protocol: BRET assays were essentially performed as described by others ([Lavoie et al., 2013]; [Bery et al., 2018]). About 100,00–150,000 HEK293-EBNA ([Meissner et al., 2001]) cells were seeded per well of a 12-well plate in 1 ml of DMEM containing 10% FBS and 2 mM L-glutamine and were grown for 24 h. Next day, Rluc8-tagged donor and GFP2-tagged acceptor constructs were transfected into cells using a jetPRIME transfection reagent (cat. no. 114-75, Polyplus). Each well was transfected with about 1 μg of plasmid DNA using 3 μl of the jetPRIME reagent. For BRET donor saturation titration experiments, the concentration of donor plasmid (25 ng) was kept constant, and the concentration of acceptor plasmid was increased from 0 to 500 ng for RasG12V BRET pairs and 0–1,000 ng for K-Ras/CaM BRET pairs. The empty pcDNA3.1(-) plasmid was used to top-up the total DNA load per transfection. After 24 h of transfection, cells were treated with compounds or vehicle control (DMSO 0.2% v/v in a growth medium) at the specified concentration for 24 h or the stipulated time period in case of the time-course experiments. The cells from one well of a 12-well plate were collected, washed, and re-plated in PBS (cat. no. 14190-094, Gibco, Thermo Fisher Scientific) on flat bottom, white 96-well plates (cat. no. 236108, Nunc, Thermo Fisher Scientific) as four technical replicates containing 90 μl of cell suspension per well. Then fluorescence intensity followed by BRET readings were carried out on a Clariostar (BMG Labtech) plate reader at 25°C. The fluorescence intensity (RFU) of GFP2 was measured with excitation at 405 ± 10 nm and emission 515 ± 10 nm; it is proportional to the acceptor concentration [acceptor]. BRET readings were taken well by well by adding 10 μl of 100 μM coelenterazine 400a (cat. no. C-320, GoldBio), the Rluc8 substrate to each well (final concentration of 10 μM) using the injector present in the plate reader. Luminescence emission intensities were simultaneously recorded at 410 ± 40 nm (RLU, proportional to [donor]) and 515 ± 15 nm (BRET signal).
The raw BRET ratio was calculated as the BRET signal measured at 515 nm divided by the emission signal measured at 410 nm (RLU). The BRET ratio was obtained by subtracting the raw BRET ratio by a background BRET signal measured for cells expressing only the donor ([Bacart et al., 2008]) as indicated in the formula below:
For BRET donor saturation titration experiments, the BRET ratio was plotted against the [acceptor]/[donor] ratio. Technical repeat data points were averaged, and data points from all biological repeats were collected into one graph for subsequent fitting. The BRET ratio vs. relative expression data were fitted using a binding saturation equation in the Prism (GraphPad) software to obtain BRETmax and BRET50 using the equation y=BRETmax×x/BRET50+x , where x is the relative expression and y is the BRET ratio. BRETmax represents the maximum saturation BRET signal and depends on the structural parameters (distance, orientation) of the BRET complex. BRET50 corresponds to the ratio of the acceptor construct over the donor construct required to attain 50% of the maximum BRET signal and is a measure of the effective relative affinity between the interacting BRET pair ([Marullo and Bouvier, 2007]).

calmodulin (CaM) = calmodulin (CaM) (Bos taurus, UniProt P62157); experiment: Fluorescence polarization assay, displacement of F-PMCA peptide from CaM; conditions: for kinact/KI: read-out: k2/Ki second-order rate constant
[1] = molecular target: T2, mutCaM (CaM with K75Q, K77Q, and K148Q mutations) (Homo sapiens, UniProt P0DP23, K76Q/K78Q); experiment: Fluorescence polarization assay with F-CaMKII peptide and His-mutCaM; type: binding; conditions: 50 nM His-mutCaM, 5 nM F-CaMKII, compared to wt CaM
T2 construct: made in house; host or cells: E. coli BL21 Star (DE3)pLysS
Protocol: Our numbering of CaM follows ([Kong Au and Chow Leung, 1998]) with Ala being the first amino acid in human CaM, as the N-terminal methionine of CaM is removed in most organisms ([Halling et al., 2016]). […] At A600 of 0.6–0.8, the culture was induced with 0.5 mM of isopropyl β-D-thiogalactopyranoside and expressed for 16 h at 25°C. Cells were collected by centrifugation and incubated on ice for 30 min. The cell suspension was sonicated in a lysis buffer (20 mM HEPES, pH 7.6, 150 mM NaCl, 5 mM MgCl2, 0.5 mg/ml lysozyme, and DNase I). The lysates were clarified by centrifugation at 18,000 g for 30 min at 4°C. The soluble fractions were subjected to protein purification.

α-hemoglobin = tested on: α-hemoglobin; design: method as in earlier work; conditions: formyl warhead, ref Center for Drug Evaluation and Research, 2017, Metcalf et al.; cited from earlier work
[2] = tested on: NCI-H358, MIA PaCa-2, MDA-MB-231 and A375 3D spheroids; experiment: 3D spheroid growth benchmarking, DSS3, alamarBlue; type: cell-based; conditions: spheroids grown 72 h then treated 72 h
Protocol: as §1, §2, §3, §4

Chemical stability note = type: physicochemical
[3] = 72 h, Hs 578T (H-RasG12D) 3D tumorosphere, 3 days treatment, read-out: IC50
[4] = Hs 578T 3D tumorosphere, log scale, read-out: logIC50 ± SD (converted)
[5] = 72 h, MDA-MB-231 (K-RasG13D) 3D tumorosphere, 3 days treatment, read-out: IC50
[6] = MDA-MB-231 3D tumorosphere, log scale, read-out: logIC50 ± SD (converted)

IC50 (Hs 578T; [3]) [µM]	IC50 (Hs 578T; [4]) [µM]	IC50 (MDA-MB-231; [5]) [µM]	IC50 (MDA-MB-231; [6]) [µM]	Kd (calmodulin (CaM)) [µM]	Ki (calmodulin (CaM)) [µM]	kinact/KI (calmodulin (CaM)) [M⁻¹ s⁻¹]	Compound	KRAS/HRAS mutant cell line DSS3 ratio (MDA-MB-231)	also measured
–	–	–	–	–	–	–	COC(=O)[C@H](CCSC)NC(=O)c1ccc(NC[C@@H](N)CS)cc1-c1ccccc1 [FTI-277]	–	H-Ras selective decrease of nanoclustering-BRET (H-RasG12V): 1.4 fold
10.6	10.5	32.4	31.6	3.1	39	2.5	Cc1c(N2CCCCC2)c2c(=O)c(C(F)(F)F)cc3ccc(C(C)C)cc1c32 [Compound 8]	1.5	IC50 (K-RasG12V/CaM): 70 ± 11 µM; binding to mutCaM over time [1]: same binding affinity for wt CaM and mutCaM over time
–	–	–	–	–	–	–	CC(C)n1nccc1-c1ncccc1COc1cccc(O)c1C=O [GBT440]	–	k2/Ki (α-hemoglobin): 15 × 10^3 M^–1 h^–1
–	–	–	–	–	–	–	C=CC(=O)N1CCN(c2nc(=O)n(-c3c(C)ccnc3C(C)C)c3nc(-c4c(O)cccc4F)c(F)cc23)[C@@H](C)C1 [AMG-510]	–	effect on 3D spheroid growth [2]: selectively and potently abolished the growth
25.8	25.1	35	34.7	0.25	11	11.7	CC(C)c1ccc2cc(C(F)(F)F)c(=O)c3c(N4CCN(C)CC4)c(C=O)c(c1)c23 [Compound 3]	6.0	affinity for CaM relative to OphA (calmodulin (CaM); after 24-h incubation, higher affinity than OphA): 15 fold; chemical stability (Chemical stability note): chemically not as stable
